Our source for the Activity values is ChEMBL document CHEMBL1141837, “New steroidal alkaloids from the roots of buxus sempervirens” (1999).

Common to all, as to type: functional
Experiment [1] has as its system Lemna minor. Description: Phytotoxicity against Lemna minor L. at 5 ppm.
Experiment [2] concerns Lemna minor. Description: Phytotoxicity against Lemna minor L. at 50 ppm.
For experiment [3], the system named is Lemna minor. Description: Phytotoxicity against Lemna minor L. at 500 ppm.

The source made the active and inactive calls. The rule behind the calls is not given here.

As to `C[C@@H]([C@H]1CC[C@@]2(C)[C@@H]3CC[C@@H]4C(=CC3=CC[C@]12C)CC[C@H](N)C4(C)C)N(C)C`, the outcome with Lemna minor [1], in the experiment with Lemna minor [2] and in the experiment on Lemna minor [3] was inactive.

Consider `CN[C@H]1CC[C@]23C[C@]24CC[C@]2(C)C(=O)CC[C@@]2(C)[C@@H]4CC[C@H]3C1(C)C`, for which the result in the experiment with Lemna minor [1], with Lemna minor [2] and in the experiment with Lemna minor [3] was inactive.

Regarding `CC(=O)O[C@H]1C[C@@H]2[C@@]3(CC4=C[C@@H](O)[C@H](NC(=O)c5ccccc5)C(C)(C)[C@@H]41)O[C@H]3C[C@]1(C)[C@@H]([C@H](C)N(C)C)CC[C@@]21C`, the Activity in the experiment on Lemna minor [1] stood at 57%; in the experiment on Lemna minor [2], 57%; with Lemna minor [3], 86%.

Turning to `CC(=O)O[C@H]1C[C@@H]2[C@H](CC[C@]3(C)[C@@H]([C@H](C)N(C)C)CC[C@@]23C)CC2=C[C@@H](O)[C@H](NC(=O)c3ccccc3)C(C)(C)[C@@H]21`, the result in the experiment on Lemna minor [1], in the experiment on Lemna minor [2] and with Lemna minor [3] was inactive.

`CC(=O)O[C@H]1C[C@@H]2[C@@]3(CC4=C[C@@H](OC(C)=O)[C@H](NC(=O)c5ccccc5)C(C)(C)[C@@H]41)O[C@H]3C[C@]1(C)[C@@H]([C@H](C)N(C)C)CC[C@@]21C`: the Activity in the experiment with Lemna minor [1] is 57%; in the experiment on Lemna minor [2], 71%; with Lemna minor [3], 86%.
